Measured values reported in patent US11471537B2, “Oligomer extended insulin-Fc conjugates” (Novo Nordisk A/S, priority 2017, dated 2022).
Values joined by “and” are separate entries in the source; they are usually repeats but may differ in a detail not shown here. Equal entries are not always repeated.

Assays:
[1] = PK studies: intravenous and subcutaneous administration to SD rats, insulin-Fc concentrations by immuno-assay; type: in vivo; details: for PK rat sc [T½ (h)] Mean Value: subcutaneous
Description: Insulin-Fc conjugates were tested in vivo by intravenous and subcutaneous administration to SD rats. Blood samples were collected and the insulin-Fc concentrations were measured by immuno-assay.

insulin receptor A = insulin receptor A (Homo sapiens, UniProt P06213); assay: Insulin receptor affinity; type: binding; details: relative to affinity of human insulin for insulin receptor A (100%)
isolated rat adipocytes = assay: Insulin-stimulated lipogenesis; type: cell-based; details: 1% HSA; relative to the activity of human insulin (100%)
Description: Insulin-stimulated lipogenesis was measured in isolated rat adipocytes in presence of 1% HSA as described in Moody A J, Stan M A, Stan M, Gliemann J. A Simple Free Fat Cell Bioassay for Insulin. Hormone And Metabolic Research. 1974; 6(1):12-6, see results in Table 6.

Sprague-Dawley rats = assay: PD studies: blood glucose after subcutaneous dosing; type: in vivo; details: sc, dose 30 nmol/kg
Description: The pharmacodynamic effect of the Insulin Fc conjugates of the examples were investigated in normal male Sprague-Dawley rats weighing approx. 350 g at study start.
Animals had free access to food and water during the experiment period. They were dosed subcutaneously in the neck region with a dose of 30 nmol/kg (unless otherwise stated in the figures below). Blood samples for blood glucose and plasma insulin analysis were collected from the tongue veins up to 10 days post dosing. Blood glucose was measured using Biosen S Line (EKF).

Sequence of insulin receptor A (P06213 28-1370 isoform P06213-2 limits assumed): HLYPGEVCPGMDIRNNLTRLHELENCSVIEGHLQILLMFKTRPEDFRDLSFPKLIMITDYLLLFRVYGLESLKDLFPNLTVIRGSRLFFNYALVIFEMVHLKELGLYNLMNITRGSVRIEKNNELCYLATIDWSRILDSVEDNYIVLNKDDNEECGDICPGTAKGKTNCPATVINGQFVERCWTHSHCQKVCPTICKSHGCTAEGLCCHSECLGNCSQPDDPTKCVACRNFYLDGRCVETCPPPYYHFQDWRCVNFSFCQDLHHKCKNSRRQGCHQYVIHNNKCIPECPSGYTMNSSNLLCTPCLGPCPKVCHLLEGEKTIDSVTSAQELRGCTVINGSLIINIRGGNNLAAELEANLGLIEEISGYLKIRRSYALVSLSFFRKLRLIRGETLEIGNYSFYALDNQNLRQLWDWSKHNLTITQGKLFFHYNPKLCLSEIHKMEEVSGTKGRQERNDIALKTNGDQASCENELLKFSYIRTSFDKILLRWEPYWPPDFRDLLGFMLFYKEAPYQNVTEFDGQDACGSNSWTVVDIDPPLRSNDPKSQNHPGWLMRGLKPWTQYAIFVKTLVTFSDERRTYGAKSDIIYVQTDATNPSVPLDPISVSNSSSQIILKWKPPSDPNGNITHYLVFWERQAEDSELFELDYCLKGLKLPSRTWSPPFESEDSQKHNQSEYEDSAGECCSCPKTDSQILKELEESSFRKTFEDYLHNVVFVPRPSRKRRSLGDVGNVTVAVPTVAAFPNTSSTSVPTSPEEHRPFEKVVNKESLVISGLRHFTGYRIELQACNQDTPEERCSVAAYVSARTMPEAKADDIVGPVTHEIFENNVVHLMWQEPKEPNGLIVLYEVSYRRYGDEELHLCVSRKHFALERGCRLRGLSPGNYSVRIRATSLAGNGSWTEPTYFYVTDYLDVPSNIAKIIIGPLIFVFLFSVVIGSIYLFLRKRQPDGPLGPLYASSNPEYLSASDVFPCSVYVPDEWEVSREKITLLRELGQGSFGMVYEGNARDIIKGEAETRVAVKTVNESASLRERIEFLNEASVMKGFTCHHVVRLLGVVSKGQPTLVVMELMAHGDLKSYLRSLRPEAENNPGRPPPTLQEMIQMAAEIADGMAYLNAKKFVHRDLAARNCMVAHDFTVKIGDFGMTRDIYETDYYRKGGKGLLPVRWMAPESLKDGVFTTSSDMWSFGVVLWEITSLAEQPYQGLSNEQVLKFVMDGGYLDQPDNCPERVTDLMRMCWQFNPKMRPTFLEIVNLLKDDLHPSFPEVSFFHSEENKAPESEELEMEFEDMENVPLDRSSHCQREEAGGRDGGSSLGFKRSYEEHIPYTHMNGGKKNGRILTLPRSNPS
Sequence of insulin receptor A (P06213 763-1382 partner limits assumed): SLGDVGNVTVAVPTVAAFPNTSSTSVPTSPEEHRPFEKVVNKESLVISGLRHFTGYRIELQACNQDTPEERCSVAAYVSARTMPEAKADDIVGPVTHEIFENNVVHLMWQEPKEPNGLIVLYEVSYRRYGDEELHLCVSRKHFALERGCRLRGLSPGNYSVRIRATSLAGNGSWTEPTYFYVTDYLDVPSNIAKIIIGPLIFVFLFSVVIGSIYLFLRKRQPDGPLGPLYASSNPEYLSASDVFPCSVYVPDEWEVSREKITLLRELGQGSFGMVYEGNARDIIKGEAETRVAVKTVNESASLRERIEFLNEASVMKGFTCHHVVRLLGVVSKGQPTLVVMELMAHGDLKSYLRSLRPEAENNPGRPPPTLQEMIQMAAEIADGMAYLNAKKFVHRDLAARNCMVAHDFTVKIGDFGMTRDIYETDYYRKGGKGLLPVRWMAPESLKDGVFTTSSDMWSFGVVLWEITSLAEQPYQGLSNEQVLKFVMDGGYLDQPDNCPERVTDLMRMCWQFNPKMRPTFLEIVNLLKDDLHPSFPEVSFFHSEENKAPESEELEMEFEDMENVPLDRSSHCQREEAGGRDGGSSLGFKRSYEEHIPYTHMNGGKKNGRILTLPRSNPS

Insulin receptor affinity [IC50 relative to HI (%)] Mean Value (insulin receptor A) [%] | Substance | PK rat iv [T½ (h)] Mean Value [1] [h] | PK rat sc [T½ (h)] Mean Value [1] [h] | Lipogenesis in rat adipocytes [Potency (%)] Mean Value (isolated rat adipocytes) [%] | Average blood glucose (Sprague-Dawley rats; time 0 days) [mM] | Average blood glucose (Sprague-Dawley rats; time 0.041667 days) [mM] | Average blood glucose (Sprague-Dawley rats; time 0.125 days) [mM] | Average blood glucose (Sprague-Dawley rats; time 0.291667 days) [mM] | Average blood glucose (Sprague-Dawley rats; time 1 day) [mM] | Average blood glucose (Sprague-Dawley rats; time 2 days) [mM] | Average blood glucose (Sprague-Dawley rats; time 3 days) [mM] | Average blood glucose (Sprague-Dawley rats; time 4 days) [mM] | Average blood glucose (Sprague-Dawley rats; time 6 days) [mM] | Average blood glucose (Sprague-Dawley rats; time 7 days) [mM] | Average blood glucose (Sprague-Dawley rats; time 8 days) [mM] | Average blood glucose (Sprague-Dawley rats; time 9 days) [mM] | Average blood glucose (Sprague-Dawley rats; time 10 days) [mM] | also measured
3.95 | (A14E, A21G, A22(GQAP)18, A94G, A95Q, A96A, A97K^, A98P, B29R, desB30 human insulin)/(227A, 234A, 235K, 297E, 315Q, 384Q, des447 hIgG4-Fc(228-447))4-[bis[2-[(2-acetyl)amino]ethyl]amino]-4-oxo-butanoyl Conjugate [Example 5.26] | 49.8 | 53.5 | 3.23 | 5.82 | 5.984 | 5.3 | 4.384 | 3.332 | 4.992 | 6.352 | 5.804 | 6.232 | 6.048 | 6.236 | 5.972 | 5.88 | Average blood glucose (Sprague-Dawley rats; time 5 days): 5.752 mM
3.68 | (A14E, A21G, A22(GQAP)19, A98K^, A99P, B25H, B29R, desB30 human insulin)/(227A, 234A, 235K, 297E, 315Q, 384Q, des447 hIgG4-Fc(228-447))4-[bis[2-[(2-acetyl)amino]ethyl]amino]-4-oxo-butanoyl Conjugate [Example 5.15] | 58.4 | 67.6 | 3.68 | 6.748 | 6.168 | 5.052 | 3.292 | 2.524 | 2.752 | 4.116 | 5.744 | 6.32 | 6.516 | 5.904 |  |  | 
3.86 | (A14E, A21G, A22(GQAP)19, A98K^, A99P, B25H, B29R, desB30 human insulin)/(227A, 234A, 235K, 297E, 315Q, 384Q, des447 hIgG4-Fc(228-447))6-[bis[2-[(2-acetyl)amino]ethyl]amino]-6-oxo-hexanoyl conjugate [Example 5.16] | 25.7 | 36.2 | 4.34 | 6.544 | 5.972 | 4.74 | 4.028 | 2.42 | 2.592 | 3.156 | 5.7 | 5.784 | 5.848 | 5.72 |  |  | 
4.70 | (A14E, A21G, A22(GQAP)24, A118G, A119Q, A120A, A121K^, A122P, B25H, B29R, desB30 human insulin)/(227A, 234A, 235K, 297E, 315Q, 384Q, des447 hIgG4-Fc(228-447))4-[bis[2-[(2-acetyl)amino]ethyl]amino]-4-oxo-butanoyl Conjugate [Example 5.23] | 57.1 | 73.2 | 5.36 | 5.384 | 5.768 | 4.808 | 4.136 | 2.86 | 2.6 | 3.536 | 5.544 | 5.796 | 6.056 | 5.672 | 5.62 | 6.308 | Average blood glucose (Sprague-Dawley rats; time 5 days): 5.684 mM
4.00 | A14E, A21G, A22(GQAPGQAPGQEP)6-GQAP, A98K^, A99P, B29R, desB30 human insulin/(227A, 234A, 235K, 297E, 315Q, 384Q, des447 hIgG4-Fc(228-447))4-[bis[2-[(2-acetyl)amino]ethyl]amino]-4-oxo-butanoyl Conjugate [Example 5.19] | 30.8 | 55.0 | 3.02 | 6.4 | 5.988 | 4.92 | 3.84 | 2.632 | 2.62 | 4.312 | 6.104 | 5.9 | 6.128 | 5.512 |  |  | 

More lines, now with the values behind:

Substance | Insulin receptor affinity [IC50 relative to HI (%)] Mean Value (insulin receptor A) [%] | PK rat iv [T½ (h)] Mean Value [1] [h] | PK rat sc [T½ (h)] Mean Value [1] [h] | Lipogenesis in rat adipocytes [Potency (%)] Mean Value (isolated rat adipocytes) [%] | Average blood glucose (Sprague-Dawley rats; time 0 days) [mM] | Average blood glucose (Sprague-Dawley rats; time 0.041667 days) [mM] | Average blood glucose (Sprague-Dawley rats; time 0.125 days) [mM] | Average blood glucose (Sprague-Dawley rats; time 0.291667 days) [mM] | Average blood glucose (Sprague-Dawley rats; time 1 day) [mM] | Average blood glucose (Sprague-Dawley rats; time 2 days) [mM] | Average blood glucose (Sprague-Dawley rats; time 3 days) [mM] | Average blood glucose (Sprague-Dawley rats; time 4 days) [mM] | Average blood glucose (Sprague-Dawley rats; time 6 days) [mM] | Average blood glucose (Sprague-Dawley rats; time 7 days) [mM] | Average blood glucose (Sprague-Dawley rats; time 8 days) [mM] | Average blood glucose (Sprague-Dawley rats; time 9 days) [mM] | Average blood glucose (Sprague-Dawley rats; time 10 days) [mM] | also measured
(A14E, A21G, A22(GQEP)19, A98K^, A99P, B25H, B29R, desB30 human insulin)/(227A, 234A, 235K, 297E, 315Q, 384Q, des447 hIgG4-Fc(228-447))4-[bis[2-[(2-acetyl)amino]ethyl]amino]-4-oxo-butanoyl Conjugate [Example 5.12] | 1.85 | 23.3 | 25.1 | 2.35 |  |  |  |  |  |  |  |  |  |  |  | 5.204 | 5.556 | Average blood glucose (Sprague-Dawley rats; time 0 days, listed as Ex 5.12): 5.816 mM and 5.516 mM; Average blood glucose (Sprague-Dawley rats; time 0.041667 days, listed as Ex 5.12): 5.598 mM and 6.16 mM; Average blood glucose (Sprague-Dawley rats; time 0.125 days, listed as Ex 5.12): 5.674 mM and 4.608 mM; Average blood glucose (Sprague-Dawley rats; time 0.208333 days): 5.338 mM; Average blood glucose (Sprague-Dawley rats; time 0.291667 days, listed as Ex 5.12): 4.598 mM and 3.988 mM; Average blood glucose (Sprague-Dawley rats; time 1 day, listed as Ex 5.12): 2.986 mM and 2.88 mM; Average blood glucose (Sprague-Dawley rats; time 2 days, listed as Ex 5.12): 2.524 mM and 2.348 mM; Average blood glucose (Sprague-Dawley rats; time 3 days, listed as Ex 5.12): 2.576 mM and 2.972 mM; Average blood glucose (Sprague-Dawley rats; time 4 days, listed as Ex 5.12): 3.284 mM and 6.028 mM; Average blood glucose (Sprague-Dawley rats; time 5 days, listed as Ex 5.12): 6.884 mM and 6.06 mM; Average blood glucose (Sprague-Dawley rats; time 6 days, listed as Ex 5.12): 6.506 mM and 5.74 mM; Average blood glucose (Sprague-Dawley rats; time 7 days, listed as Ex 5.12): 6.202 mM and 5.716 mM; Average blood glucose (Sprague-Dawley rats; time 8 days, listed as Ex 5.12): 6.046 mM and 5.568 mM
A14E, A21G, A22(GQAPGQEP)6, A70K^, A71P, B25H, B29R, desB30 human insulin/(227A, 234A, 235K, 297E, 315Q, 384Q, des447 hIgG4-Fc(228-447))4-[bis[2-[(2-acetyl)amino]ethyl]amino]-4-oxo-butanoyl Conjugate [Example 5.14] | 5.37 | 46.6 | 54.0 | 4.86 | 6.248 | 5.32 | 4.08 | 3.048 | 2.356 | 2.4 | 2.832 | 4.304 | 6.032 | 6.076 | 5.5 |  |  | 
A14E, B(−78K^), B(−77P), B(−1)(GQEP)19, B25H, B29R, desB30 human insulin/(227A, 234A, 235K hIgG4-Fc(228-447))4-[bis[2-[(2-acetyl)amino]ethyl]amino]-4-oxo-butanoyl Conjugate [Example 5.4] | 2.14 | 26.4 | 32.2 | 0.36 |  |  |  |  |  |  |  |  |  |  |  |  |  | 
A14E, B(−78K^), B(−77P), B(−1)(GQEP)19, B25H, B29R, desB30 human insulin/(227A, 234A, 235K, 297E, 315Q, 384Q, des447 hIgG4-Fc(228-447))4-[bis[2-[(2-acetyl)amino]ethyl]amino]-4-oxo-butanoyl Conjugate [Example 5.11] | 1.72 | 30.7 | 33.1 | 0.39 |  |  |  |  |  |  |  |  |  |  |  |  |  | 
